Read-outs that look alike come from different tables or passages of the source.
Legend:
[1] = Body weight of xenograft mice (Example 9); type: in vivo; conditions: doses as in Example 9
Description: To monitor toxicity, animal body weights were measured and plotted in FIG. 10.

[2] = test system: PC-3 xenograft; conditions: for Complete tumor regression: tumors regressed/total
Description: The tumor sizes were measured 2 times a week and calculated as: Tumor Volume=(A×B^2)/2 where A and B are the tumor length and width (in mm), respectively.

[3] = target: Bcl-2 (Homo sapiens, UniProt P10415); test: Fluorescence polarization in vitro Bcl-2 binding assay
Description: Bcl-2 used in this assay is a recombinant His-fused soluble protein. […] Inc., Research Triangle Park, N.C.). […] The unlabeled Bid peptide is used as the positive control. The Ki values were calculated using our developed equation for FP assay (Nikolovska-Coleska et al., Anal. Biochem., 2004, in press). The program for calculating a Ki value is available free of charge via the Internet at http://sw16.im.med.umich.edu/software/calc_ki/.

[4] = target: human Bcl-xL (Homo sapiens, UniProt Q07817); test: Fluorescence polarization in vitro Bcl-xL binding assay; conditions: displacement of Flu-Bak peptide
Chain of human Bcl-xL (Q07817 1-209 limits assumed): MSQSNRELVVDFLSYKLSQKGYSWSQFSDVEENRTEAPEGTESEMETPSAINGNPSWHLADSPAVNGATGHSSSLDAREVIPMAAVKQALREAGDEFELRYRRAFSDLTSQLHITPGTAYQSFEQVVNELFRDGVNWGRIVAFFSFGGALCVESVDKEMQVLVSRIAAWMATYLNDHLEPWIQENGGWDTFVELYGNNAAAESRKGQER
From the text: For determination of the binding affinity to Bcl-xL protein a human Bcl-xL recombinant His-tagged protein without the C-terminus hydrophobic tail and the Bak-16mer BH3 peptide labeled with 6-carboxyfluorescein succinimidyl ester (FAM) were used.

[5] = test system: MDA-MB-231 (2LMP) cells; test: Cell growth of MDA-MB-231 (2LMP) cells (WST); type: cell-based; conditions: Homo sapiens, read-out: IC50 of cell growth inhibition
[6] = test system: MDA-231 cells; test: Cell survival with CDDP and TW-37 alone or in combination; type: cell-based, human; conditions: CDDP alone, 42 hours
From the text: CDDP is a DNA damaging agent and can effectively induce apoptosis in MDA-231 breasted cancer cells and is also a clinically used chemotherapeutic drug for cancer.

Chain of Bcl-2 (P10415 92-205 limits assumed): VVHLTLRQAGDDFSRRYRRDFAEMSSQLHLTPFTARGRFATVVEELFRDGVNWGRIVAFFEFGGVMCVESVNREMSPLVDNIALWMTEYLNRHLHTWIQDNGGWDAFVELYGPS

Row | IC50 [3] [nM] | IC50 [4] [nM] | IC50 [5] [nM] | Structure (SMILES) | further results
1 |  |  |  | CC(=O)O[C@@]12CO[C@@H]1C[C@H](O)[C@@]1(C)C(=O)[C@H](O)C3=C(C)[C@@H](OC(=O)[C@H](O)[C@@H](NC(=O)OC(C)(C)C)c4ccccc4)C[C@@](O)([C@@H](OC(=O)c4ccccc4)[C@H]21)C3(C)C [TAXOTERE, (2R,3S)-N-carboxy-3-phenylisoserine, N-tert-butyl ester, 13-ester with 5b-20-epoxy-12a,4,7b,10b,13a-hexahydroxytax-11-en-9-one 4-acetate 2-benzoate, trihydrate] | body weight during treatment [1]: reversible body weight loss; T-C (days) tumor growth delay ([2]; TXT 7.5 mg/kg): 30 days; T/C (%) tumor growth inhibition ([2]; TXT 7.5 mg/kg): 55.1%; activity under the NCI criteria (T/C<42%) ([2]; TXT 7.5 mg/kg): is not; Complete tumor regression ([2]; TXT 7.5 mg/kg): 0/10; T-C (days) tumor growth delay ([2]; TXT 11 mg/kg): 32 days; T/C (%) tumor growth inhibition ([2]; TXT 11 mg/kg): 32.1%; activity under the NCI criteria (T/C<42%) ([2]; TXT 11 mg/kg): significantly active; Complete tumor regression ([2]; TXT 11 mg/kg): 0/10
2 | > 1000 | > 1000 | 100 to 20000 | CCCCCCCCCCCc1cc(C(C)C)c(O)c(O)c1O [TM-105] | 
3 | > 1000 | > 1000 | 100 to 20000 | CCCCCCCCCCC(=O)c1cc(C(C)C)c(O)c(O)c1O [TM-106] | 
4 | > 1000 | > 1000 | 100 to 20000 | CC(C)c1cc(CCc2ccc3ccccc3c2)c(O)c(O)c1O [TM-107] | 
5 | > 1000 | > 1000 | 100 to 20000 | CC(C)c1cc(C(=O)Cc2ccc3ccccc3c2)c(O)c(O)c1O [TM-108] | 
6 | ≤ 1000 | > 1000 | 100 to 20000 | CCCCCCCCCCCc1cc(Cc2ccccc2)c(O)c(O)c1O [TM-121] | 
7 | ≤ 1000 | > 1000 | 100 to 20000 | CCCCCCCCCCC(=O)c1cc(Cc2ccccc2)c(O)c(O)c1O [TM-122] | 
8 | > 1000 | > 1000 | 100 to 20000 | CCCCCCCCCCCc1cc(CC2CCCCC2)c(O)c(O)c1O [TM-129] | 
9 |  | > 1000 | 100 to 20000 | O=C(c1ccc(Oc2ccccc2)cc1)c1cc(Cc2ccccc2)c(O)c(O)c1O [TM-140] | 
10 |  | > 1000 | 100 to 20000 | Oc1c(Cc2ccccc2)cc(Cc2ccc(Oc3ccccc3)cc2)c(O)c1O [TM-141] | 
11 | > 1000 | > 1000 | 100 to 20000 | Oc1c(Cc2ccccc2)cc(Cc2ccc(-c3ccccc3)cc2)c(O)c1O [TM-142] | 
12 |  | > 1000 | 100 to 20000 | O=C(c1ccc(Oc2ccccc2)cc1)c1cc(-c2cccc3ccccc23)c(O)c(O)c1O [TM-165] | 
13 |  | > 1000 | 100 to 20000 | O=C(c1ccc(Oc2ccccc2)cc1)c1cc(-c2ccc3ccccc3c2)c(O)c(O)c1O [TM-167] | 
14 |  | > 1000 | 100 to 20000 | O=C(c1ccc(Oc2ccccc2)cc1)c1cc(C(=O)c2ccc3ccccc3c2)c(O)c(O)c1O [TM-169] | 
15 |  | ≤ 1000 | 100 to 20000 | O=C(c1ccc(Oc2ccccc2)cc1)c1cc(C(=O)c2ccc(-c3ccccc3)cc2)c(O)c(O)c1O [TM-171] | 
16 |  |  |  | N.N.[Cl][Pt][Cl] [cisplatin, Cisplatin, reference compound] | IC50 [6]: ~750 nM

— patent US8557812B2, “Small molecule inhibitors of anti-apoptotic BCL-2 family members and the uses thereof” (The Regents of the University of Michigan, priority 2004, dated 2013)
